Data on 13 compounds can be found in patent US20170052170A1, “NOVEL CELL LINES AND METHODS” (priority 2009, published 2017).

In experiment [1] the test system is GABAA (α1β3γ2s, α2β3γ2s, α3β3γ2s, α5β3γ2s). The experiment in a line: In-cell readout assay using halide-sensitive meYFP, GABAA-meYFP-CHO cells. It is filed as cell-based, human. The conditions noted are these: increasing concentrations of GABA ligand. The protocol: The response of GABAA (subunit combinations of α1β3γ2s (A1), α2β3γ2s (A2), α3β3γ2s (A3) and α5β3γ2s (A5)) expressing CHO cells of the invention to test compounds was evaluated using the following protocol for an in-cell readout assay.
Cells were plated 24 hours prior to assay at 10-25,000 cells per well in 384 well plates in growth media (Ham's F-12 media plus FBS and glutamine). […] The assay plates were then loaded on the FDSS (Hamamatsu Corporation). […] The plates were read for 90 seconds.

In another experiment the target is T1, GABAA α3β3γ2s (α3) (Homo sapiens, UniProt P18507+P28472+P34903).
T1 construct: expressed in transfected cells; host or cells: CHO
Type of experiment: cell-based. The conditions noted are these: CHO cells, membrane potential dye. The procedure: (§1) Cells were plated 24 hours prior to assay at 10-25,000 cells per well in 384 well plates in growth media (Ham's F-12 media plus FBS and glutamine). […] Incubation was for 1 hour, followed by plate loading onto the high throughput fluorescent plate reader (Hamamastu FDSS). […] The plates were read for 90 seconds.
(§2) Interaction of cell lines with test compounds was evaluated by measuring the membrane potential of GABAA, in response to test compounds using the following protocol.

For a further experiment, the target named is T2, GABAA α5β3γ2s (α5) (Homo sapiens, UniProt P18507+P28472+P31644).
T2 construct: expressed in transfected cells; host or cells: CHO
It is filed as cell-based. The protocol: as §1, §2

The target of the next experiment is T3, GABAA α2β3γ2s (α2) (Homo sapiens, UniProt P18507+P28472+P47869, A343T).
T3 construct: expressed in transfected cells; host or cells: CHO
Type of experiment: cell-based. The procedure:
as §1, §2

In a further experiment the target is T4, GABAA α1β3γ2s (α1) (Homo sapiens, UniProt P14867+P18507+P28472).
T4 construct: expressed in transfected cells; host or cells: CHO
It is filed as cell-based. The conditions noted are these: CHO cells, membrane potential dye. The procedure:
as §1, §2

The target of experiment [2] is T5, sweet taste receptor (human T1R2 and T1R3 subunits, mouse Gα15) (Homo sapiens, UniProt Q7RTX0+Q8TE23, C757R/I191V/I486V/R317G).
T5 construct: expressed in transfected cells; host or cells: HEK293T (ATCC CRL-11268)
T5 sequence (Q8TE23 20-839 I191V/R317G/I486V): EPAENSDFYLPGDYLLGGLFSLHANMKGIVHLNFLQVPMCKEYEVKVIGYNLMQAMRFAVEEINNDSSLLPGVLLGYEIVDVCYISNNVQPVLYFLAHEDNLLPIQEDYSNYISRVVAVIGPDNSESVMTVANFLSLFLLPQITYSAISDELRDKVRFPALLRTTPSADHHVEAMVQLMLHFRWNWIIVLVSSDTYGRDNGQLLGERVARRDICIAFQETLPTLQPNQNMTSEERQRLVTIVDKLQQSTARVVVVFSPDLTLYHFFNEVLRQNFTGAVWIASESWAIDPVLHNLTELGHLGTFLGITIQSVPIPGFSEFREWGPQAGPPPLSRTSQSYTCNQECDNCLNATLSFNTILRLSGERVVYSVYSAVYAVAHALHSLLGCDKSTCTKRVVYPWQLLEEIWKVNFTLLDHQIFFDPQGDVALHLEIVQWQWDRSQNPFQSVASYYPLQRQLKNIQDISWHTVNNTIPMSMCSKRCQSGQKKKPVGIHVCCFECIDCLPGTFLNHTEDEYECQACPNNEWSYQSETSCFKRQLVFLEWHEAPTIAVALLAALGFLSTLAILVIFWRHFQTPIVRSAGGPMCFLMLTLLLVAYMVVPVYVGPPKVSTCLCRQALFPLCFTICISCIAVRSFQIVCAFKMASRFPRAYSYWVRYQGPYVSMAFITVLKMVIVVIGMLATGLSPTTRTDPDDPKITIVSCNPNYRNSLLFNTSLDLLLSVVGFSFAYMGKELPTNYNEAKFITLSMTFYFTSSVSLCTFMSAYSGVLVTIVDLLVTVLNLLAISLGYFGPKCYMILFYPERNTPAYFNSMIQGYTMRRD
T5 sequence (Q7RTX0 21-852 C757R): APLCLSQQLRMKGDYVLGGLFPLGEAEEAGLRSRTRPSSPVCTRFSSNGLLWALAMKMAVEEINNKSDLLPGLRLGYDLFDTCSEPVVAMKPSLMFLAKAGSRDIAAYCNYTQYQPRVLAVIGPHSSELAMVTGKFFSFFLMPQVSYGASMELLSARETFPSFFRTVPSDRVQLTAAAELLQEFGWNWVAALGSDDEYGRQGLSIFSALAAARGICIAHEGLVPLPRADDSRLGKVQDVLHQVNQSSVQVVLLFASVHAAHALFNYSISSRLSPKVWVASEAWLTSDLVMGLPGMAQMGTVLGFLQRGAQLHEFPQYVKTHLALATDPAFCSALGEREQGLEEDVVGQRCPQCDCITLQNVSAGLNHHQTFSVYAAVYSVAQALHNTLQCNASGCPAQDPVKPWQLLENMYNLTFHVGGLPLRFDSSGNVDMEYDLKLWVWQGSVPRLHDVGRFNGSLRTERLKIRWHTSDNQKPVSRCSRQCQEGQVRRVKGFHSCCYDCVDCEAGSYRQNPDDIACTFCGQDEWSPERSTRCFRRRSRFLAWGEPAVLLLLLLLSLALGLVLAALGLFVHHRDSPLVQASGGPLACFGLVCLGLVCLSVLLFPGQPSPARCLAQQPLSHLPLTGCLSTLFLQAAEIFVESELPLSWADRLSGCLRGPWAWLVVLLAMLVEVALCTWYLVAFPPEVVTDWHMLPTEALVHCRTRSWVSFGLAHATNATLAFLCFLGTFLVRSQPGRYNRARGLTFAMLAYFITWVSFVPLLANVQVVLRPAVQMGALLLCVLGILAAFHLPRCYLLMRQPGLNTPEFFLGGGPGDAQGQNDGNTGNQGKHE
As to the kind of experiment: sweet taste receptor-expressing cell-based assay (calcium flux). The conditions noted are these: natural, high intensity and artificial sweeteners; FIGS. 23 and 24. The text has this: FIG. 24 (A-C) is series of line graphs representing the data obtained in various dose response experiments using sweet taste receptor agonists in a sweet taste receptor-expressing cell-based assay (using cells of this invention). (A) The responses of a sweet taste receptor-expressing cell line to natural caloric sweeteners were plotted as a function of the agonist concentration. (B) Dose response curves of common artificial sweeteners in a sweet taste receptor-expressing cell-based assay. (C) Dose response curves of natural high-intensity sweeteners in a sweet taste receptor-expressing cell-based assay.
FIG. 25 is a series of representative response traces generated after performing a sweet taste receptor-expressing cell-based assay using cells of this invention.
To identify a taste receptor modulator (e.g., umami taste receptor modulator or sweet taste receptor modulator), one exposes a cell or cell line of the invention to a test compound under conditions in which the taste receptor (e.g., umami taste receptor or sweet taste receptor) would be expected to be functional and then detects a statistically significant change (e.g., p<0.05) in taste receptor activity (e.g., umami taste receptor activity or sweet taste receptor activity) compared to a suitable control, e.g., cells that are not exposed to the test compound. Positive and/or negative controls using known agonists or antagonists and/or cells expressing different combinations of taste receptor subunits (e.g., umami taste receptor subunits or sweet taste receptor subunits) (and optionally a G protein) may also be used. In some embodiments, the taste receptor activity (e.g., umami taste receptor activity or sweet taste receptor activity) to be detected and/or measured is calcium release from the endoplasmic reticulum as a result of the down stream signaling events following taste receptor activation (e.g., umami taste receptor activation or sweet taste receptor activation). One of ordinary skill in the art would understand that various assay parameters may be optimized, e.g., signal to noise ratio.
See, e.g., FIGS. 23 and 24.

In experiment [3] the target is T6, sweet taste receptor (T1R2/T1R3) (Homo sapiens, UniProt Q7RTX0+Q8TE23, C757R/I191V/I486V/R317G).
T6 construct: expressed in transfected cells; host or cells: HEK293T (ATCC CRL-11268)
T6 sequence (Q8TE23 20-839 I191V/R317G/I486V): T5 sequence (Q8TE23 20-839 I191V/R317G/I486V)
T6 sequence (Q7RTX0 21-852 C757R): T5 sequence (Q7RTX0 21-852 C757R)
The experiment in a line: Sweet cell-based calcium flux assay, HEK293T cells expressing T1R2, T1R3 and mouse Gα15. The conditions noted are these: FIG. 24, one assay; read-out: EC50 values (calcium flux).
From the text: Plates are then loaded on a high throughput plate reader (Hamamatsu FDSS). […] Calcium flux is detected for 90 seconds.

The target in another experiment is human GC-C (human) (UniProt P25092). As to the kind of experiment: cell-based or functional assay.
The mark [4] stands for this setting: CHO cells, membrane potential dye.

pEC50: −log10 of the molar value. Like-named read-outs stand apart in the source and are kept apart here. Peptide text beside a SMILES is read from it. Where only a bound is given, the exact number is not on record here.

T4 sequence (P14867 28-456): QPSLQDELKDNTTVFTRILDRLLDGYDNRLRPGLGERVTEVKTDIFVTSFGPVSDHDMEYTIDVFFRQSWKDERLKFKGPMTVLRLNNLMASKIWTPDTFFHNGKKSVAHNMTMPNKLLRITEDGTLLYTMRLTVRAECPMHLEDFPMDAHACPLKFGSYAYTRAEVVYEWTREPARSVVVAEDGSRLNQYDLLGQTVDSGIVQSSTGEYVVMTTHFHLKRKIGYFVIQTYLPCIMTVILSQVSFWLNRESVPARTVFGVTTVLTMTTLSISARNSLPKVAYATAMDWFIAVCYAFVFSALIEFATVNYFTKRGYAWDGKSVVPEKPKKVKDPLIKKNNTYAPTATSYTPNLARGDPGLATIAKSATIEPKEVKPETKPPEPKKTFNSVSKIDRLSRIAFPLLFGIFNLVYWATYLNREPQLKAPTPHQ
T4 sequence (P28472 26-473): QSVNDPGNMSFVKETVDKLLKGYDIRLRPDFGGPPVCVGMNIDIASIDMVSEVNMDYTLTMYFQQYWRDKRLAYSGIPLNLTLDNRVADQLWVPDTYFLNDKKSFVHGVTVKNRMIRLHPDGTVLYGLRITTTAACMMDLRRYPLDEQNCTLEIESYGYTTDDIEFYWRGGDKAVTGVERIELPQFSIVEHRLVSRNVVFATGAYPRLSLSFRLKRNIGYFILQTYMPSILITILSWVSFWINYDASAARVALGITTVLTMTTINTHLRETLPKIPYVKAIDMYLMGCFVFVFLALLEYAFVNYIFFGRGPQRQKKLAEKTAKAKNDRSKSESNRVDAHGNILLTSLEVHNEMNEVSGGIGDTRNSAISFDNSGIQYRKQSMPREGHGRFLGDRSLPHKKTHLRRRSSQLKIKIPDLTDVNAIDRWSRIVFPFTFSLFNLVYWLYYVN
T4 sequence (P18507 40-467 isoform P18507-1 limits assumed): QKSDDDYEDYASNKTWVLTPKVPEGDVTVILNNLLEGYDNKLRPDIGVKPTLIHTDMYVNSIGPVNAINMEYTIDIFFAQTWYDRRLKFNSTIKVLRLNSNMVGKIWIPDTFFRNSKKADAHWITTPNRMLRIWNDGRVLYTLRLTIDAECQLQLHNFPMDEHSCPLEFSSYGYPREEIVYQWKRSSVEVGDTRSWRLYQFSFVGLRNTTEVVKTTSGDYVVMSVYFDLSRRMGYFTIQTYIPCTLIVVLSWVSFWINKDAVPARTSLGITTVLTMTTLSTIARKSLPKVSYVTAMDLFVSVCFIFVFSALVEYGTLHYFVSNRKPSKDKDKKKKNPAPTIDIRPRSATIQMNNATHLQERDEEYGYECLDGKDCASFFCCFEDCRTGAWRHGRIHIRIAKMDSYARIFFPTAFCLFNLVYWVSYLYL
T1 sequence (P34903 29-492): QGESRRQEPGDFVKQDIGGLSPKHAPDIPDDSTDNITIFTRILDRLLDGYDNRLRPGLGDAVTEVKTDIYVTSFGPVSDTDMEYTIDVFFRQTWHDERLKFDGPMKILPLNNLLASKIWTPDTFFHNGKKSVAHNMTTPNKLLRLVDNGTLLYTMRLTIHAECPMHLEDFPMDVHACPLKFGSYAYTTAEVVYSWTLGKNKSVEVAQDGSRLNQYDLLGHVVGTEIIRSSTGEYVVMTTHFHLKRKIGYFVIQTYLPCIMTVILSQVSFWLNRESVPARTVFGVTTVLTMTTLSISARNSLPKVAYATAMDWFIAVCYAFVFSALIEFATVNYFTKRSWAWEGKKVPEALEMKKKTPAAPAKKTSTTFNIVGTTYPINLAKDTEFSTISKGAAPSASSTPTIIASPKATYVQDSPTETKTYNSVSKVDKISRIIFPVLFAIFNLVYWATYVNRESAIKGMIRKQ
T1 sequence (P28472 26-473): as the sequence (P28472 26-473) above
T1 sequence (P18507 40-467 isoform P18507-1 limits assumed): as the sequence (P18507 40-467 isoform P18507-1 limits assumed) above
T2 sequence (P31644 32-462): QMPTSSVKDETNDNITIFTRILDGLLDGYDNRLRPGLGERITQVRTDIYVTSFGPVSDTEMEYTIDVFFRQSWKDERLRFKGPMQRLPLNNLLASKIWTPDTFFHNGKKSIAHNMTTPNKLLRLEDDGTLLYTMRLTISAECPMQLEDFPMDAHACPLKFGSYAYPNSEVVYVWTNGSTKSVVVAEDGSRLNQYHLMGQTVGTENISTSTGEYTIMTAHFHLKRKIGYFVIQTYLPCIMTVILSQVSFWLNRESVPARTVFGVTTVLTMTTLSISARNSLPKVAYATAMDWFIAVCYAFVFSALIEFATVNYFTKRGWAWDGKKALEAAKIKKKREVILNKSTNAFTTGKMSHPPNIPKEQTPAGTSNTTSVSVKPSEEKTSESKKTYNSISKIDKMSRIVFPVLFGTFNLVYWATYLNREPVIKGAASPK
T2 sequence (P28472 26-473): as the sequence (P28472 26-473) above
T2 sequence (P18507 40-467 isoform P18507-1 limits assumed): as the sequence (P18507 40-467 isoform P18507-1 limits assumed) above
T3 sequence (P47869 29-451 A343T): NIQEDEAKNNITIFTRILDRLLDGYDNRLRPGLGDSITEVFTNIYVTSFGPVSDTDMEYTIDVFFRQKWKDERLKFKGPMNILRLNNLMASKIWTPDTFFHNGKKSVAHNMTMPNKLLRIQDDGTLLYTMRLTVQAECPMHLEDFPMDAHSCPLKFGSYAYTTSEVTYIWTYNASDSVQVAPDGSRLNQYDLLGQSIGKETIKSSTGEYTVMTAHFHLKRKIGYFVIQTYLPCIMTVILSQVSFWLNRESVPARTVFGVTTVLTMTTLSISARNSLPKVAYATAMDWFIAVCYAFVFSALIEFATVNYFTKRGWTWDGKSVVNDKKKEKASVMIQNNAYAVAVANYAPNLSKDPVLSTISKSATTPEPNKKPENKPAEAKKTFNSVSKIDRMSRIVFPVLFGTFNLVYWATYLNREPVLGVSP
T3 sequence (P28472 26-473, stated change not applied): as the sequence (P28472 26-473) above
T3 sequence (P18507 40-467 isoform P18507-1 limits assumed, stated change not applied): as the sequence (P18507 40-467 isoform P18507-1 limits assumed) above
human GC-C (human), sequence (P25092 24-1073): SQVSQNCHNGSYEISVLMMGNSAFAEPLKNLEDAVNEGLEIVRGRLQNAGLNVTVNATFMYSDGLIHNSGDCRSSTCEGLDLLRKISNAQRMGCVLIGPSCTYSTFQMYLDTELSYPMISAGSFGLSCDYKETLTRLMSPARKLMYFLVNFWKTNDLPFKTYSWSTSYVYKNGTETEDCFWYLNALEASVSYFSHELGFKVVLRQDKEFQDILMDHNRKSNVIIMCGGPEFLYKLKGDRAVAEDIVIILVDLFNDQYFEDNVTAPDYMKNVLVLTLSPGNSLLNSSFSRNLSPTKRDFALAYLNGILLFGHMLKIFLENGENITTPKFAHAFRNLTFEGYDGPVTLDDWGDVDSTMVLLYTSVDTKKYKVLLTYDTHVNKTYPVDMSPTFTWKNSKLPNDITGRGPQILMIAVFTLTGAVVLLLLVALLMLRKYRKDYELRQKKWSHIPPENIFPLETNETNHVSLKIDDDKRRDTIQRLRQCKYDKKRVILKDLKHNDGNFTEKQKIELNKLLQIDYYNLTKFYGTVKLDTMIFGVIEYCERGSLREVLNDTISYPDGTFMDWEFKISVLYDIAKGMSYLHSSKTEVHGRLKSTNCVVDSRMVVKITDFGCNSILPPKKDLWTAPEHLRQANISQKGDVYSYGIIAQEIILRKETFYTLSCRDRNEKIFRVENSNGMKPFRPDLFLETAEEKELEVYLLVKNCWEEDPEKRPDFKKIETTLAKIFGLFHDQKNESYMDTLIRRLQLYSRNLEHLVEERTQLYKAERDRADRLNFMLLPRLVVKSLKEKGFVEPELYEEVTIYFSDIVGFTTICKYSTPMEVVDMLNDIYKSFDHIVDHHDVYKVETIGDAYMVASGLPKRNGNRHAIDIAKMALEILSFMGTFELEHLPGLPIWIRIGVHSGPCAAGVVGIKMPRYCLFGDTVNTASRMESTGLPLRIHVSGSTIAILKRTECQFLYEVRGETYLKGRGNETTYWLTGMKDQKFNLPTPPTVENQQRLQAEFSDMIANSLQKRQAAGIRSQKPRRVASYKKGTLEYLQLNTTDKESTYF

`NCCCC(=O)O` [GABA]: the “quench of meYFP signal” value in experiment [1] is reported as “increasing quench of meYFP signal”.

In the case of Ivermectin, the pEC50 is 6.10 on GABAA α3β3γ2s (α3), 6.16 on GABAA α5β3γ2s (α5) (setting [4]), 6.12 on GABAA α2β3γ2s (α2) (setting [4]) and 5.37 at GABAA α1β3γ2s (α1).

Take mogroside: in experiment [2], the “response of sweet taste receptor cells and cell lines to known classes of sweet compounds” value (“response … of sweet compounds” for short) was “respond”.

As to `CC(C)(C)c1cc(C=C(C#N)C#N)cc(C(C)(C)C)c1O` [Tyrphostin A9], the pEC50 was 5.30 on GABAA α3β3γ2s (α3), 4.27 on GABAA α5β3γ2s (α5) (setting [4]), 6.06 at GABAA α2β3γ2s (α2) (setting [4]) and 5.74 at GABAA α1β3γ2s (α1).

On to `O=C1NS(=O)(=O)c2ccccc21` [saccharin], for which the “response … of sweet compounds” value in experiment [2] is “respond”.

With `CC1=CC(=O)NS(=O)(=O)O1` [acesulfamek], the “response … of sweet compounds” value in experiment [2] is listed as “respond”.

`COc1cc(/C=C(\C#N)C(=O)c2ccc(O)c(O)c2)cc(I)c1O` [I—OMe Tyrphostin 538]: the negative logarithm of the EC50 (pEC50) on GABAA α3β3γ2s (α3) is 5.66; on GABAA α2β3γ2s (α2) (setting [4]), 5.82; on GABAA α1β3γ2s (α1), 5.46. Further, the “EC50 Values α5 (result in words)” value at GABAA α5β3γ2s (α5) (setting [4]) is “Not active”.

Consider `COC(=O)[C@H](Cc1ccccc1)NC(=O)[C@@H](N)CC(=O)O` [asparatame] (H-Asp-Phe-OMe), for which the “response … of sweet compounds” value in experiment [2] was “respond”.

On to `OC[C@H]1O[C@@](CO)(O[C@H]2O[C@H](CO)[C@@H](O)[C@H](O)[C@H]2O)[C@@H](O)[C@@H]1O` [sucrose], for which, in experiment [2], the “response … of sweet compounds” value is “respond”. Also, the negative logarithm of the EC50 (pEC50) in experiment [3] is > 2.46.

Turning to `C=C1C[C@@]23CC[C@H]4[C@@](C)(CCC[C@@]4(C)C(=O)O[C@@H]4O[C@H](CO)[C@@H](O)[C@H](O)[C@H]4O)[C@@H]2CC[C@]1(O[C@@H]1O[C@H](CO)[C@@H](O)[C@H](O[C@@H]2O[C@H](CO)[C@@H](O)[C@H](O)[C@H]2O)[C@H]1O[C@@H]1O[C@H](CO)[C@@H](O)[C@H](O)[C@H]1O)C3` [rebaudioside A], the “response … of sweet compounds” value in experiment [2] is “respond”.

As for guanylin (peptide), in the experiment with human GC-C (human), the EC50 of guanylin dose-response (absorbance as a function of changes in cGMP levels) was determined as 0.0011 µM and the level of cGMP worked out at 6 pmol/mL.

For the compound `CC(=O)C1CCC2C3CCC4CC(O)CCC4(C)C3CCC12C` (stereo not drawn) [5-alpha-Pregnan-3alpha-ol-20-one], the pEC50 at GABAA α3β3γ2s (α3) was 7.10; at GABAA α5β3γ2s (α5), 7.47; at GABAA α2β3γ2s (α2) it was 6.85; on GABAA α1β3γ2s (α1) it was 6.16.

For the compound `CC12CCC(O)CC1CCC1C2CCC2(C)C(C(=O)CO)CCC12` (stereo not drawn) [3-alpha, 21-dihydroxy-5-alpha-pregnan-20-one], the pEC50 is 7.10 at GABAA α3β3γ2s (α3), 7.76 on GABAA α5β3γ2s (α5) (setting [4]), 6.91 on GABAA α2β3γ2s (α2) (setting [4]) and 6.42 on GABAA α1β3γ2s (α1).
